Test results from US11453667B2, “Pyridone-pyrimidine derivative acting as KRASG12C mutein inhibitor” (MEDSHINE DISCOVERY INC., priority 2018, dated 2022).

Legend:
[1] = system: NCI-H358 human non-small cell lung cancer cells with KRAS G12C mutation; assay: Cell experiment: anti-proliferative activity, CellTiter-Glo, NCI-H358; format: cell-based; settings: 5 days culture
Description: (§1) This experiment is intended to verify that the compounds of the present invention have an inhibitory effect on the proliferation of NCI-H358 human non-small cell lung cancer cells with KRAS G12C mutation, MIA PaCa2 human pancreatic cancer cells with KRAS G12C mutation and wild-type A375 human malignant melanoma cells.
(§2) 40 μl of phosphate buffer was added to the peripheral wells of three 384-well microplates respectively, and 40 μl of cell suspension to be tested was added to the other wells of each plate respectively (plate 1: NCI-H358 cell suspension containing 500 NCI-H358 cells; plate 2: MIAPaCa2 cell suspension containing 300 MIAPaCa2 cells; plate 3: A375 cell suspension containing 300 A375 cells). The three cell plates were then placed in a carbon dioxide incubator and incubated overnight. Echo was used to perform a 3-fold gradient dilution of the compounds to be tested, and each compound was diluted with 10 concentration gradients (diluted from 50 μM to 0.003 μM), 100 nl of which was respectively added to the corresponding wells of the cell plates; after dosing, 40 μL of phosphate buffer was added to each well of rows A and P and columns 1 and 24, and then the cell plates were put back to the carbon dioxide incubator for culturing for 5 days. 20 μl of Promega CellTiter-Glo reagent per well was added to the cell plates, which was shaken at room temperature for 10 minutes in the dark to stabilize the luminescence signal. A PerkinElmer Envision multi-label analyzer was used for reading.
(§3) Data analysis: IC50 results were analyzed by GraphPad Prism 5.0 software […].

[2] = system: wild-type A375 human malignant melanoma cells; assay: Cell experiment: anti-proliferative activity, CellTiter-Glo, A375; format: cell-based; settings: 5 days culture
Description: as §1, §2, §3

[3] = system: MIA PaCa2 human pancreatic cancer cells with KRAS G12C mutation; assay: Cell experiment: anti-proliferative activity, CellTiter-Glo, MIA PaCa2; format: cell-based; settings: 5 days culture
Description: as §1, §2, §3

[4] = Liver microsome stability test, human; format: in vitro ADME; settings: human liver microsomes, 0.5 mg protein/mL; read-out: Human T1/2
Description: (§4) To test the metabolic stability of the test article in mice, rats and human liver microsomes.
(§5) 1. 10 μL of the test or control article working solution was added to all plates (T0, T5, T10, T20, T30, T60, NCF60).
(§6) 2. Liver microsome solution was dispensed into a 96-well plate at 680 μL/well, and addition was performed on each plate at 80 μL/well, and the above-mentioned incubation plate was placed at 37° C. for pre-incubation for about 10 minutes.
(§7) 4. After the pre-incubation, the NADPH regeneration system working solution was dispensed into the 96-well plate at 90 μL/well, and addition was performed on each plate at 10 μL/well to start the reaction.
(§8) 5. Incubation was performed for an appropriate time (e.g., 5, 10, 20, 30 and 60 minutes).
(§9) 6. 300 μL of the stopping solution (refrigerated at 4° C., containing 100 ng/mL of tolbutamide and 100 ng/mL of labetalol) was respectively added to each sample well.
(§10) T1/2 and Clint(mic) were calculated by the following formula.
(§11) Ct is the concentration at time t, with t being the incubation time; C0 is the concentration at 0; Ke is the elimination rate constant; Clint(mic) is the intrinsic clearance rate of liver microsomes; and Clint(liver) is the hepatic intrinsic clearance rate. CLint(mic)=0.693/half-life/mg microsomal protein per mL (microsome concentration during incubation) CLint(liver)=CLint(mic)×mg microsomal protein/g liver weight×ratio of liver weight to body weight

[5] = Liver microsome stability test, rat; format: in vitro ADME; settings: rat liver microsomes, 0.5 mg protein/mL; read-out: rat T1/2
Description: as §4, §5, §6, §7, §8, §9, §10, §11

[6] = Liver microsome stability test, mouse; format: in vitro ADME; settings: mouse liver microsomes, 0.5 mg protein/mL; read-out: mouse T1/2
Description: as §4, §5, §6, §7, §8, §9, §10, §11

[7] = system: human non-small cell lung cancer NCI-H358; assay: In vivo drug efficacy test (2): subcutaneous xenograft tumor model; design: species or system BALB/c nude mice; settings: 100 mg/kg (0-6 days) + 50 mg/kg (7-20 days)
Description: To evaluate the in vivo efficacy of the test compounds in a subcutaneous xenograft tumor model of human non-small cell lung cancer NCI-H358.
BALB/c nude mice, female, 6-8 weeks old, weighing 18-21 grams. A total of 100 were required. They were provided by Shanghai Lingchang Experimental Animal Co., Ltd ( ? ? ). NCI-H358 tumor cells were resuspended in PBS to prepare 0.1 mL (5×10^6) of cell suspension, which was inoculated subcutaneously on the right back of each mouse (5×10^6/mouse) to wait for tumor growth. When the average tumor volume reached about 150-200 mm^3, randomized grouping and administration were performed, and the administration dose was shown in Table 6. The diameter of the tumor was measured with vernier calipers twice a week. The formula for calculating the tumor volume is: V=0.5a×b^2, wherein a and b represent the long and short diameters of the tumor, respectively. The tumor suppressive effect of the compounds was evaluated by TGI (%). TGI (%) reflects the tumor growth inhibition rate. Calculation of TGI (%): TGI (%)=[(1−(average tumor volume at the end of administration in a treatment group−average tumor volume at the beginning of administration in the treatment group))/(average tumor volume at the end of treatment in the solvent control group−average tumor volume at the beginning of treatment in the solvent control group)]×100%.

[8] = Homo sapiens, MIA PaCa-2, 120 h

IC50 ([2]; Homo sapiens, A-375, 120 h)	IC50 ([1]; Homo sapiens, NCI-H358, 120 h)	IC50 [3, 8]	SMILES	also measured
8.82 µM	–	–	C=CC(=O)N1CCN(c2ncnc3c(=O)n(-c4c(N)c(Cl)cc(Cl)c4F)c(C(F)(F)F)cc23)[C@H](C)C1 (atropisomer, axis not shown) [Example 51]	IC50 [1]: 2.04 µM
8.91 µM	–	–	C=CC(=O)N1CCN(c2ncnc3c(=O)n(-c4c(N)c(Cl)cc(Cl)c4F)c(C(F)(F)F)cc23)[C@@H](C)C1 (atropisomer, axis not shown) [Example 53]	IC50 [1]: 2.27 µM
29.3 µM	0.45 µM	0.37 µM	C=CC(=O)N1CCN(c2nc(N3CC(N(CC)CC)C3)nc3c(=O)n(-c4c(N)cccc4F)c(C(F)(F)F)cc23)CC1 (single isomer, unassigned) [Example 32]	half-life [4]: > 2.42 h; half-life [5]: > 2.42 h; half-life [6]: > 2.42 h
17.8 µM	5.3 µM	–	C=CC(=O)N1CCN(c2ncnc3c(=O)n(-c4c(F)cccc4OC)c(C(F)(F)F)cc23)CC1 [Example 1]	–
39.9 µM	14.6 µM	12.7 µM	C=CC(=O)N1CCN(c2nc(N3CCOCC3)nc3c(=O)n(-c4c(O)cccc4F)c(C(F)(F)F)cc23)CC1 [Example 6]	–
42.2 µM	24 µM	–	C=CC(=O)N1CCN(c2nc(OC)nc3c(=O)n(-c4c(O)cccc4F)c(C(F)(F)F)cc23)CC1 [Example 11]	–
9.89 µM	14.2 µM	–	C=CC(=O)N1CCN(c2nc(OC3CCN(C)CC3)nc3c(=O)n(-c4c(O)cccc4F)c(C(F)(F)F)cc23)CC1 [Example 12]	–
2.86 µM	7.18 µM	–	C=CC(=O)N1CC2CN(c3ncnc4c(=O)n(-c5c(O)cccc5F)c(C(F)(F)F)cc34)CC21 (centres unmarked) [Example 18]	–
–	–	15.3 µM	C=CC(=O)N1CCN(c2ncnc3c(=O)n(-c4c(C)cccc4O)c(C(F)(F)F)cc23)CC1 [Example 25]	–
33.3 µM	1.64 µM	1.25 µM	C=CC(=O)N1CCN(c2ncnc3c(=O)n(-c4c(N)cccc4F)c(C(F)(F)F)cc23)CC1 [Example 31]	–
19.7 µM	1.05 µM	1.44 µM	C=CC(=O)N1CCN(c2nc(N3CC(N(CC)CC)C3)nc3c(=O)n(-c4c(C)ccc5[nH]ncc45)c(C(F)(F)F)cc23)CC1 [Example 37]	–
12.2 µM	0.15 µM	0.16 µM	C=CC(=O)N1CCN(c2nc(N3CC(N(CC)CC)C3)nc3c(=O)n(-c4c(F)ccc(Cl)c4N)c(C(F)(F)F)cc23)CC1 [Example 41]	–
4.57 µM	0.01 µM	0.02 µM	C=CC(=O)N1CCN(c2nc(N3CC(N(CC)CC)C3)nc3c(=O)n(-c4c(N)ccc(Cl)c4F)c(C(F)(F)F)cc23)CC1 [Example 42]	Tumor volume (day 20) [7]: 191 mm^3; TGI ([7]; day 20): 95.51%
> 50 µM	1.95 µM	1.79 µM	C=CC(=O)N1CCN(c2nc(N3CC(N(CC)CC)C3)nc3c(=O)n(-c4c(O)c(Cl)cc(Cl)c4F)c(C(F)(F)F)cc23)CC1 [Example 46]	–
20.8 µM	0.18 µM	0.13 µM	C=CC(=O)N1CCN(c2ncnc3c(=O)n(-c4c(N)ccc(Cl)c4F)c(C(F)(F)F)cc23)CC1 [Example 48]	–
≥ 50 µM	4.26 µM	–	C=CC(=O)N1CCN(c2ncnc3c(=O)n(-c4c(O)ccc5ccccc45)c(C(F)(F)F)cc23)CC1 [Trifluoroacetate of example 55]	–

The next lines start with the compound.

SMILES	IC50 ([2]; Homo sapiens, A-375, 120 h)	IC50 ([1]; Homo sapiens, NCI-H358, 120 h)	IC50 [3, 8]	also measured
C=CC(=O)N1CCN(c2nc(N3CC(N(CC)CC)C3)nc3c(=O)n(-c4c(N)c(Cl)cc(Cl)c4F)c(C(F)(F)F)cc23)CC1 (atropisomer, axis not shown) [Example 44]	9.02 µM	–	–	IC50 [1]: 3.67 µM; IC50 [3]: 2.97 µM
C=CC(=O)N1CCN(c2nc(N3CC(N(CC)CC)C3)nc3c(=O)n(-c4c(N)c(Cl)cc(Cl)c4F)c(C(F)(F)F)cc23)CC1 (atropisomer, axis not shown) [Example 45]	–	–	–	IC50 [1]: 0.01 µM; IC50 [2]: 6.24 µM; IC50 [3]: 0.01 µM
C=CC(=O)N1CCN(c2nc(N3CC(N(CC)CC)C3)nc3c(=O)n(-c4c(O)cccc4F)c(C(F)(F)F)cc23)CC1 [Example 9]	–	–	–	half-life [4]: > 2.42 h; half-life [5]: 0.772 h; half-life [6]: > 2.42 h
C=CC(=O)N1CCN(c2nc(Oc3cnn(C)c3)nc3c(=O)n(-c4c(O)cccc4F)c(C(F)(F)F)cc23)CC1 [Example 15]	> 50 µM	13.9 µM	–	–
C=CC(=O)N1CCN(c2ncnc3c(=O)n(-c4c(F)cccc4OC(=O)N(C)C)c(C(F)(F)F)cc23)CC1 [Example 22]	24.4 µM	–	–	IC50 ([1]; Homo sapiens, 120 h): 5.12 µM
C=CC(=O)N1CCN(c2ncnc3c(=O)n(-c4c(C)ccc(N)c4C)c(C(F)(F)F)cc23)CC1 [Example 26]	32.6 µM	13.3 µM	–	–
C=CC(=O)N1CCN(c2ncnc3c(=O)n(-c4c(C)ccc5c4cnn5C(C)=O)c(C(F)(F)F)cc23)CC1 [Example 27]	≥ 50 µM	20.8 µM	–	–
C=CC(=O)N1CCN(c2ncnc3c(=O)n(-c4c(C)ccc5[nH]ncc45)c(C(F)(F)F)cc23)CC1 [Example 28]	36.2 µM	9.93 µM	–	–
C=CC(=O)N1CCN(c2nc(N3CC(N(CC)CC)C3)nc3c(=O)n(-c4c(N)cccc4F)c(C(F)(F)F)cc23)CC1 [Example 33]	39.6 µM	15.8 µM	–	–
C=CC(=O)N1CCN(c2nc(N3CC(N(CC)CC)C3)nc3c(=O)n(-c4c(C)ccc(N)c4C)c(C(F)(F)F)cc23)CC1 [Example 35]	–	–	–	IC50 [3]: 12 µM
C=CC(=O)N1CCN(c2nc(N3CC(N(CC)CC)C3)nc3c(=O)n(-c4c(C)ccc(N)c4C)c(C(F)(F)F)cc23)CC1 [Example 36]	–	–	–	IC50 [3]: 1.11 µM; half-life [4]: > 2.42 h; half-life [5]: > 2.42 h; half-life [6]: > 2.42 h
C=CC(=O)N1CCN(c2ncnc3c(=O)n(-c4c(F)ccc(Cl)c4N)c(C(F)(F)F)cc23)CC1 [Example 47]	27.9 µM	1 µM	0.82 µM	–
C=CC(=O)N1CCN(c2ncnc3c(=O)n(-c4c(O)c(Cl)cc(Cl)c4F)c(C(F)(F)F)cc23)CC1 [Example 50]	> 50 µM	5.49 µM	3.9 µM	–
C=CC(=O)N1CCN(c2ncnc3c(=O)n(-c4c(N)c(Cl)cc(Cl)c4F)c(C(F)(F)F)cc23)[C@H](C)C1 [Example 52]	–	–	–	IC50 [1]: 0.06 µM; IC50 [2]: 7.39 µM
C=CC(=O)N1CCN(c2ncnc3c(=O)n(-c4c(N)c(Cl)cc(Cl)c4F)c(C(F)(F)F)cc23)[C@@H](C)C1 [Example 54]	–	–	–	IC50 [1]: 0.29 µM; IC50 [2]: 6.66 µM
C=CC(=O)N1CCN(c2nc(N3CC(N(CC)CC)C3)nc3c(=O)n(-c4c(O)cccc4F)c(C(F)(F)F)cc23)CC1 [Formate of example 8]	39.1 µM	1.41 µM	2.31 µM	–
